Data on six compounds can be found in patent publication US5707990A, “2-substituted amino and thio alkyl benzoxazine antimicrobial agents” (Ortho Pharmaceutical Corporation, priority 1996, dated 1998).

The test addresses T1, Kinase A and SpoOF (Bacillus subtilis, UniProt P16497).
T1 construct: made in house; host or cells: recombinant E. coli
T1 sequence (P16497 1-606): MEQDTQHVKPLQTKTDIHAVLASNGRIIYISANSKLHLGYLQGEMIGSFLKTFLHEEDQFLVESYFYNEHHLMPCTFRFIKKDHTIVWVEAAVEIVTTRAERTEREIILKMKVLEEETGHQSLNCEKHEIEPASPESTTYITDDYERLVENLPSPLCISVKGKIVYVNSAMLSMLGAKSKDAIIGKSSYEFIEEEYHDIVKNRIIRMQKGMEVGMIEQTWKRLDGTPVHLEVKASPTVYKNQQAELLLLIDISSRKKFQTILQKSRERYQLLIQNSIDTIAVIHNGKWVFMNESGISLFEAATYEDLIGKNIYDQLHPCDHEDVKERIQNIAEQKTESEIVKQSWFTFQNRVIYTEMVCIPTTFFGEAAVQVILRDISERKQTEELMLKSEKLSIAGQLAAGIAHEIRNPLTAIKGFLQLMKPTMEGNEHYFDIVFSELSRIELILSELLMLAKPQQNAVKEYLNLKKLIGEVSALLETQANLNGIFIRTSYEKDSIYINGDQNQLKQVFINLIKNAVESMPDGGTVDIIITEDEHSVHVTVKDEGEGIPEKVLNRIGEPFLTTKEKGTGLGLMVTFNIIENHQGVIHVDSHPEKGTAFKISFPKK
Kind of test: Autophosphorylation of Kinase A and Transphosphorylation of SpoOF Assay (HPK in vitro assay). In kind it is biochemical. The note with it: [32P]ATP, gel/phosphoimager, inhibitor concentrations from 1 to 500 μM, IC50 of less than 1000 μM considered active. The protocol:
Autophosphorylation of Kinase A and Transphosphorylation of SpoOF Assay
To study the effect of the compounds of the present invention on the signal transduction process in bacteria, the inhibiting effect of the compounds on the sporulation operon proteins Kinase A and SpoOF was examined. Specifically, the inhibition of autophosphorylation of Kinase A and the transphosphorylation of SpoOF was determined in the following assays. The SpoOF response regulator is the primary substrate for phosphorylation by the protein kinase, Kin A, involved in the sporulation process in bacteria. See D. Burbulys, K. A. Trach, J. A. Hoch, Cell, 64, 545-552 (1991 ). SpoOF and KinA were prepared from recombinant E. coli overexpressing the proteins (J. Cavanagh et al, Amino Adds, 6, 131-140 (1994) and references therein).
The following stock reagents were either prepared and used promptly or stored at the indicated temperature:
8 X Salts: 2M KCl (5 mL), 1M MgCl2 ([…]), 1M CaCl2 ([…]), 10 mg/mL phenylmethylsulfonyl fluoride ([…]), 1M dithioreitol (50 mL), 0.25M Na2 EDTA (32 mL) and H2 O 3.82 mL (-20° C.)
5X Loading Dye: 0.5M TRIS-HCl-pH 6.8 (7.5 mL), 10% SDS (2 mL) 0.1% bromophenol blue (0.5 mL), 100% glycerol (3 mL) and 12.5M 2-mercaptoethanol (0.3 mL)
1-1.3 mg/mL KinA: 15 mM TRIS-HCl, pH 8.0, 6 mM KCl; 4 mM 2-mercaptoethanol;40% glycerol (-20° C.)
1 mg/mL SpoOF: 17.5 mM TRIS-HCl, pH 8.0; 0.7 mM KCl; 0.7 mM MgCl2; 0.7 mM CaCl2; 5 mM 2-mercaptoethanol; 30% Glycerol (-20° C.)
5% Stacking Gel: 40% 29:1 acrylamide:bis acrylamide (1.25 mL), 0.5M TRIS-HCl, pH 6.8 (2.5 mL), 10% SDS (0.1 mL), D-H2 O (6.15 mL) 10% ammonium persulfate (100 mL) and TEMED (25 mL)
SDS Running Buffer: TRIS-BASE (3.02 g), glycine (14.4 g) SDS (1 g), D-H2 O (to 1 L)
The reaction mixture was prepared from 8X Salts (87 μL), 1M TRIS, pH 8 (118 μL), 50% glycerol (63 μL), SpoOF (14.1 μL) and KinA (7.0 μL). Microcentrifuge tubes were charged with the reaction mixture (18.5 μL) and a 1.0 mM solution of the test compound in 5% DMSO (18.5 μL), and incubated for 15 min on ice. 100 mM ATP solution (3.0 μl, containing 625 μCi [^32 P]ATP) was added, and the mixture left for 10 minutes at room temperature. The reaction was quenched with 5X loading dye (10 μL per tube) and the samples were loaded on a prepared 5% Stacking Gel, or stored on dry ice until ready for use. The prepared wells were filled with SDS Running Buffer, samples were loaded into the wells, and 80 volts were applied to the gel until the dye front reached the bottom of the stacking gel. The voltage was then increased to 250 volts until electrophoresis was complete. Radioactive bands in the gel corresponding to phosphorylated KinA and SpoOF were imaged and quantitated with a phosphoimager.
If either enzyme was inhibited (as evidenced by the absence of labelled protein in the developed gel), an IC50 was calculated by running the assay with a range of inhibitor concentrations from 1 to 500 μM. After electrophoresis of the reaction mixtures, percent inhibition was determined by measuring the concentration of radioactive phosphorus with a phosphoimager and calculating the values using a software program (BioRad Molecular Analyst). IC50 values of less than 1000 μM are considered active.

For `N=C(N)NCCC1Oc2ccc(C(F)(F)F)cc2N(Cc2cccc(Cl)c2)C1=O` (stereo not drawn) [Example 18], the IC50 (usually the concentration at which inhibition is half-maximal) came to 80 µM.

Regarding `Cc1ccc2c(c1)N(Cc1cccc(Cl)c1)C(=O)C(CCNC(=N)N)O2` (stereo not drawn) [Example 19], the “IC50” value is 52 µM. The value for `N=C(N)NCCC1Oc2cccnc2N(Cc2cccc(Cl)c2)C1=O` (stereo not drawn) [Example 20] was 344 µM; that for `N=C(N)NCCC1Oc2ccccc2N(Cc2ccccc2Cl)C1=O` (stereo not drawn) [Example 22] was 325 µM; that for `N=C(N)NCCC1Oc2cc([N+](=O)[O-])ccc2N(Cc2cccc(Cl)c2)C1=O` (stereo not drawn) [Example 23] was 182 µM.

For `O=C1C(CCSC(=S)N2CCCC2)Oc2ccccc2N1Cc1ccccc1Cl` (stereo not drawn) [Example 25], the half-maximal inhibitory concentration (IC50) was 274 µM.
